In US20250326815A1, “STAPLE-CONTAINING POLYPEPTIDES AND APPLICATION THEREOF” (Soter Biopharma Pte. Ltd., priority 2021, published 2025):

Experiments:
Format in all cases: cell-based
GLP-1R = biological target: T1, GLP-1R (Homo sapiens, UniProt P43220); test: In vitro agonistic activity on GLP-1R (cAMP assay); details: HEK293 cell line; for Agonistic activity on GLP-1R Max Activity (%): Max Dose 20 nM
T1 construct: host or cells: HEK293
Description: (§1) The cell lines were constructed by Shanghai WuXi AppTec.
(§2) The compounds to be assayed were serially diluted 4-fold with Bravo to obtain 10 concentrations, with a starting concentration of 30 μM.
(§3) 1) 100 nL of the compound was transferred to an OptiPlate-384 plate using Echo.
(§4) 2) The OptiPlate-384 plate was centrifuged at 1000 rpm for 5 seconds.
(§5) 1) A GLP-1R/GIPR/GCGR cell cryopreservation tube was quickly placed in warm water at 37° C. to thaw.
(§6) 2) The cell suspension was transferred to a 15 mL centrifuge tube, and gently washed with 10 ml of HBSS.
(§7) 3) The centrifuge tube was centrifuged at 1000 rpm at room temperature for 1 minute.
(§8) 4) The supernatant was discarded.
(§9) 5) The cells at the bottom were gently dispersed and gently washed with 10 ml of HBSS. The cells were centrifuged and sedimented, and finally resuspended with the assay buffer.
(§10) 6) Vi-cell was used to measure the cell density and viability.
(§11) 7) The concentration of GLP-1R/GIPR/GCGR cells was diluted to 2.0*105/mL with the assay buffer.
(§12) 8) […] of the diluted cell suspension was transferred to the OptiPlate-384 plate.
(§13) 9) The plate was incubated at room temperature for 30 minutes.
(§14) 1) 10 μL of 800 nM gradient diluted cAMP standard was added into an empty well of the OptiPlate-384 plate.
(§15) 2) 10 μL of cAMP assay reagent was added.
(§16) 3) The OptiPlate-384 plate was covered with a TopSeal-A film and incubated at room temperature for 60 minutes.
(§17) The TopSeal-A was peeled off and the plate was read on the EnVision.

GCGR = biological target: T2, GCGR (Homo sapiens, UniProt P47871); test: In vitro agonistic activity on GCGR (cAMP assay); details: HEK293 cell line; for Agonistic activity on GCGR Max Activity (%): Max Dose 100 nM
T2 construct: host or cells: HEK293
Description: as §1, §2, §3, §4, §5, §6, §7, §8, §9, §10, §11, §12, §13, §14, §15, §16, §17

GIPR = biological target: T3, GIPR (Homo sapiens, UniProt P48546); test: In vitro agonistic activity on GIPR (cAMP assay); details: CHO cell line; for Agonistic activity on GIPR Max Activity (%): Max Dose 20 nM
T3 construct: host or cells: CHO
T3 sequence (P48546 22-466): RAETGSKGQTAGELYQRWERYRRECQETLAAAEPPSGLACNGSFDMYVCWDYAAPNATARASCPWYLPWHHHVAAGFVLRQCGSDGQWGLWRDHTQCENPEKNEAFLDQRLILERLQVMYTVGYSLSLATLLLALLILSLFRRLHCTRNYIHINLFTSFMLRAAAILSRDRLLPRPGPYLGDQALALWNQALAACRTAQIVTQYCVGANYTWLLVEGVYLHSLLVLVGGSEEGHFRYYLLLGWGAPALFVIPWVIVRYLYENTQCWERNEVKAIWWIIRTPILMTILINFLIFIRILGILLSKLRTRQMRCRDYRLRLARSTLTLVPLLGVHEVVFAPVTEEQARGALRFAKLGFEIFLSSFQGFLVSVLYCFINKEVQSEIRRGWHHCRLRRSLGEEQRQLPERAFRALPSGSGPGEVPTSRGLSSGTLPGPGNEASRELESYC
Description: as §1, §2, §3, §4, §5, §6, §7, §8, §9, §10, §11, §12, §13, §14, §15, §16, §17

T1 sequence (P43220 24-463, species assumed): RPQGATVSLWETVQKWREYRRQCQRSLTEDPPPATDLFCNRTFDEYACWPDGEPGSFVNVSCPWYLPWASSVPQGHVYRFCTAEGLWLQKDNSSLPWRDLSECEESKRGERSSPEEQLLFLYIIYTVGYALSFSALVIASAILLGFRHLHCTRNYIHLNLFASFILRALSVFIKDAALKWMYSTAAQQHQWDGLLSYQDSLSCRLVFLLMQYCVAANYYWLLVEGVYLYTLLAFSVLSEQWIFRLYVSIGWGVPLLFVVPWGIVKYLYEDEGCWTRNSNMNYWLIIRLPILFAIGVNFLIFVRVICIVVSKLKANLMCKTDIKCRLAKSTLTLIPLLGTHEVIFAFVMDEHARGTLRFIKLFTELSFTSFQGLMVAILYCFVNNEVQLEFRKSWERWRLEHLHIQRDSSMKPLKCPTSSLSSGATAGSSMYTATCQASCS
T2 sequence (P47871 26-477, species assumed): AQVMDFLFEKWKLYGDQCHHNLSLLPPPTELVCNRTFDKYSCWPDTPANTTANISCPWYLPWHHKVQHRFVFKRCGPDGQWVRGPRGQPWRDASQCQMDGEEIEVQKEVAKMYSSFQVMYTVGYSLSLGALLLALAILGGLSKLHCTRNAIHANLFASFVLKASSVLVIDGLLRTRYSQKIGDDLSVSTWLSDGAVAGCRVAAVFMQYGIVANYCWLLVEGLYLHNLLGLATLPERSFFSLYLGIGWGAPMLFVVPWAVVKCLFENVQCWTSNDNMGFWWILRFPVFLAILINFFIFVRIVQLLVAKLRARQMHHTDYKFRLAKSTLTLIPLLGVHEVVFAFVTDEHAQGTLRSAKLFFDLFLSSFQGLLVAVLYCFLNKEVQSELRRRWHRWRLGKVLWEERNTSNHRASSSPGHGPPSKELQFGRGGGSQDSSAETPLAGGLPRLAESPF

| SMILES | EC50 (GLP-1R) [nM] | Agonistic activity on GLP-1R Max Activity (%) (GLP-1R) | EC50 (GCGR) [nM] | Agonistic activity on GCGR Max Activity (%) (GCGR) | EC50 (GIPR) [nM] | Agonistic activity on GIPR Max Activity (%) (GIPR) |
| --- | --- | --- | --- | --- | --- | --- |
| CC(C)C[C@H](NC(=O)[C@H](CC(C)C)NC(=O)[C@H](Cc1c[nH]c2ccccc12)NC(=O)[C@H](CCC(=O)O)NC(=O)[C@@H](NC(=O)[C@H](Cc1ccccc1)NC(=O)[C@@H]1CCCCNC(=O)CN(C(=O)COCCOCCNC(=O)COCCOCCNC(=O)CC[C@H](NC(=O)CCCCCCCCCCCCCCCCCCC(=O)O)C(=O)O)CC(=O)NCCCC[C@H](NC(=O)[C@H](CCCCN)NC(=O)[C@H](CCC(=O)O)NC(=O)[C@H](CC(=O)O)NC(=O)[C@H](CC(C)C)NC(=O)[C@H](Cc2ccc(O)cc2)NC(=O)[C@H](CCCCN)NC(=O)[C@H](CO)NC(=O)[C@H](Cc2ccc(O)cc2)NC(=O)[C@H](CC(=O)O)NC(=O)[C@H](CO)NC(=O)[C@@H](NC(=O)[C@H](Cc2ccccc2)NC(=O)[C@@H](NC(=O)CNC(=O)[C@H](CCC(N)=O)NC(=O)C(C)(C)NC(=O)[C@@H](N)Cc2c[nH]cn2)[C@@H](C)O)[C@@H](C)O)C(=O)N[C@@H](C)C(=O)N[C@@H](CCCCN)C(=O)N1)C(C)C)C(=O)N[C@@H](CCC(=O)O)C(=O)NCC(=O)NCC(=O)N1CCC[C@H]1C(=O)N[C@@H](CO)C(=O)N[C@@H](CO)C(=O)NCC(N)=O [WX003] | 0.0582 | 111.18 | 0.624 | 86.01 | > 20 | 1.57 |
| CC(C)C[C@@H]1NC(=O)[C@H](CC(C)C)NC(=O)[C@H](Cc2c[nH]c3ccccc23)NC(=O)[C@@H](NC(=O)[C@@H](NC(=O)[C@H](Cc2ccccc2)NC(=O)[C@H](CCC(=O)O)NC(=O)[C@H](CCCCN)NC(=O)[C@H](C)NC(=O)[C@H](CCCCN)NC(=O)[C@H](CCCCN)NC(=O)[C@H](CCC(=O)O)NC(=O)[C@H](CC(=O)O)NC(=O)[C@H](CC(C)C)NC(=O)[C@H](Cc2ccc(O)cc2)NC(=O)[C@H](CCCCN)NC(=O)[C@H](CO)NC(=O)[C@H](Cc2ccc(O)cc2)NC(=O)[C@H](CC(=O)O)NC(=O)[C@H](CO)NC(=O)[C@@H](NC(=O)[C@H](Cc2ccccc2)NC(=O)[C@@H](NC(=O)CNC(=O)[C@H](CCC(N)=O)NC(=O)C(C)(C)NC(=O)[C@@H](N)Cc2c[nH]cn2)[C@@H](C)O)[C@@H](C)O)C(C)C)CCCCNC(=O)CN(C(=O)COCCOCCNC(=O)COCCOCCNC(=O)CC[C@H](NC(=O)CCCCCCCCCCCCCCCCCCC(=O)O)C(=O)O)CC(=O)NCCCC[C@@H](C(=O)NCC(=O)NCC(=O)N2CCC[C@H]2C(=O)N[C@@H](CO)C(=O)N[C@@H](CO)C(=O)NCC(N)=O)NC1=O [WX005] | 0.112 | 104.24 | 2.99 | 140.57 | > 20 | 1.42 |
| CC(C)C[C@H](NC(=O)[C@H](CC(C)C)NC(=O)[C@H](Cc1c[nH]c2ccccc12)NC(=O)[C@H](CCC(=O)O)NC(=O)[C@@H](NC(=O)[C@H](Cc1ccccc1)NC(=O)[C@@H]1CCCCNC(=O)CN(C(=O)COCCOCCNC(=O)COCCOCCNC(=O)CC[C@H](NC(=O)CCCCCCCCCCCCCCCCCCC(=O)O)C(=O)O)CC(=O)NCCCC[C@H](NC(=O)[C@H](CCC(=O)O)NC(=O)[C@H](CC(=O)O)NC(=O)[C@H](CC(C)C)NC(=O)[C@H](Cc2ccc(O)cc2)NC(=O)[C@H](CCCCN)NC(=O)[C@H](CO)NC(=O)[C@H](Cc2ccc(O)cc2)NC(=O)[C@H](CC(=O)O)NC(=O)[C@H](CO)NC(=O)[C@@H](NC(=O)[C@H](Cc2ccccc2)NC(=O)[C@@H](NC(=O)CNC(=O)[C@H](CCC(N)=O)NC(=O)C(C)(C)NC(=O)[C@@H](N)Cc2c[nH]cn2)[C@@H](C)O)[C@@H](C)O)C(=O)N[C@@H](CCCCN)C(=O)N[C@@H](C)C(=O)N[C@@H](CCCCN)C(=O)N1)C(C)C)C(=O)N[C@@H](CCC(=O)O)C(=O)NCC(=O)NCC(=O)N1CCC[C@H]1C(=O)N[C@@H](CO)C(=O)N[C@@H](CO)C(=O)NCC(N)=O [WX002] | 0.0169 | 106.52 | 0.195 | 144.14 | > 20 | 4.06 |
